Reference: paper PMC6154995, “Heme-dependent Inactivation of 5-Aminolevulinate Synthase from Caulobacter crescentus” (Scientific Reports, 2018)

Tests used:
Type in all cases: binding
[1] = target: T1, 5-aminolevulinate synthase (cALAS) (Caulobacter vibrioides, UniProt Q9A8J8, C398A); experiment: apparent Kd from spectrophotometric titration; details: read-out: KdGly,app /
T1 construct: gene CC_1355; recombinant cALAS C398A, PLP form

[2] = target: T2, 5-aminolevulinate synthase (cALAS) (Caulobacter vibrioides, UniProt Q9A8J8); experiment: UV/Vis spectrophotometric titration; set-up: gene CC_1355; recombinant full-length cALAS, PLP form
T2 sequence (Q9A8J8 1-408): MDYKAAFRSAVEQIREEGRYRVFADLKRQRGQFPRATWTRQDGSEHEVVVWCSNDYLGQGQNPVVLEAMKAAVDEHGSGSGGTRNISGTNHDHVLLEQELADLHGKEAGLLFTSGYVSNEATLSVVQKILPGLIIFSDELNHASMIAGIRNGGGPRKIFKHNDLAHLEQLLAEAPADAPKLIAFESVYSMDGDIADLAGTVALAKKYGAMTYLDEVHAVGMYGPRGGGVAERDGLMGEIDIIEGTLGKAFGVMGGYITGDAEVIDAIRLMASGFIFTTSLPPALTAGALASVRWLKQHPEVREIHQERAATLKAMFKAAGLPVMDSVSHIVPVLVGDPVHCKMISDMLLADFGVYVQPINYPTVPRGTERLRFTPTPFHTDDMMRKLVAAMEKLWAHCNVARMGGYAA

[3] = target: T3, 5-aminolevulinate synthase (cALAS) (Caulobacter vibrioides, UniProt Q9A8J8, C398A/H340A); experiment: apparent Kd from spectrophotometric titration; details: read-out: KdGly,app /
T3 construct: gene CC_1355; recombinant cALAS H340A/C398A, PLP form
T3 sequence (Q9A8J8 1-408 H340A/C398A): as the sequence (Q9A8J8 1-408) above, with H340A, C398A counted along it

[4] = target: T4, 5-aminolevulinate synthase (cALAS) (Caulobacter vibrioides, UniProt Q9A8J8, H340A); experiment: apparent Kd from spectrophotometric titration; details: read-out: KdGly,app /
T4 construct: gene CC_1355; recombinant cALAS H340A, PLP form
T4 sequence (Q9A8J8 1-408 H340A): as the sequence (Q9A8J8 1-408) above, with H340A counted along it

[5] = target: T5, 5-aminolevulinate synthase (cALAS) (Caulobacter vibrioides, UniProt Q9A8J8, D214A); experiment: UV/Vis titration of apoenzyme with PLP
T5 construct: gene CC_1355; D214A apo-cALAS
T5 sequence (Q9A8J8 1-408 D214A): as the sequence (Q9A8J8 1-408) above, with D214A counted along it

[6] = target: T2, 5-aminolevulinate synthase (cALAS); experiment: UV/Vis and CD at […] nm; HPLC of PLP from purified enzyme; set-up: gene CC_1355; recombinant full-length cALAS, C-terminal His6-tag

T1 sequence (Q9A8J8 1-408 C398A): as the sequence (Q9A8J8 1-408) above, with C398A counted along it

Structure (SMILES)	Kd [1]	Kd [2]	Kd [3]	Kd [4]	UV/Vis titration of apoenzyme with PLP [5]	UV/Vis and CD at 424 nm; HPLC of PLP from purified enzyme [6]
NCC(=O)O [glycine]	13.6 ± 3.1 mM	10.6 ± 1.35 mM	6.46 ± 1.5 mM	11.5 ± 1.17 mM	–	–
Cc1ncc(COP(=O)(O)O)c(C=O)c1O [pyridoxal 5′-phosphate]	–	–	–	–	upon PLP titration, cALAS displayed spectral changes supporting internal Schiff-base formation between PLP and Lys248	a peak for PLP was observed for the PLP form of cALAS
